From patent US12076307B2, “Compositions for prevention or treatment of acute radiation syndrome and other radiation exposure” (priority 2017, dated 2024)
Values joined by “and” are separate entries in the source; they are usually repeats but may differ in a detail not shown here. Identical values can stand only once.

Assays:
Balb/c mice, 6.11 Gy TBI = assay: Structural analog / calorie effect study: EC-18, PLH, olive oil in 6.11 Gy ARS model; type: in vivo, mouse; details: 250 mg/kg daily
Method: Similarly, a structural analog efficacy study was conducted to identify the optimally functional molecule in the ARS murine model. The study was performed with the structural analog in which the acetyl group in EC-18 is replaced with a hydroxyl group (yielding palmitic linoleic hydroxyl glycerol, PLH) in 20 Balb/c mice (10 female and 10 male) per group. Mice were irradiated with TBI of 6.11Gy at day 0 and 250 mg/kg of EC-18 or PLH were given daily in-life.
The purpose of this study was to assess whether extra calories of EC-18 contribute to the enhanced survival in mice after exposure to a whole-body sublethal dose of γ-radiation. The study was performed with the structural analog in which the acetyl group in EC-18 is replaced with a hydroxyl group (yielding PLH) in a total of 100 BALB/c mice ([…]; 20 animals per study group) aged at 11 weeks. Mice were irradiated with TBI of 6.11Gy at day 0 and the same dosage (250 mg/kg) of EC-18, PLH, or olive oil (vehicle control) were given daily in-life.

[1] = Whole blood and lymphatic radioactivity in rats after single oral [14C]EC-18 100 mg/kg; type: in vivo, rat; details: 100 mg/kg oral, n=3; for Tmax: 100 mg/kg
Method: Male SD rats in fasted condition were administered a single dose of [^14C]EC-18 (oral dose of 100 mg/kg; vehicle: olive oil), and the radioactive concentration of the EC-18 was measured in whole blood samples at 0.5, 1, 2, 3, 4, 6, and 8 hrs after its administration. In parallel, male rats with a cannula inserted into the intestinal tract were administered a single dose of [^14C]EC-18 (oral dose of 100 mg/kg; vehicle: olive oil) and the concentration of EC-18-related radioactivity was measured in lymphatic fluid collected in conscious rats at 0.5, 1, 2, 3, 4, 6, and 8 hrs after its administration (FIG. 60). Then, the values of PK parameters were calculated using the quantitative data from whole blood and lymphatic fluid samples (Table 20). Following a single oral administration of [14C]EC-18, EC-18 concentration in the lymphatic fluid of rats was 10 to 53 times higher than that in whole blood (FIG. 60).

[2] = Whole-body autoradiography of rats after single oral [14C]EC-18; type: in vivo, rat; details: 200 mg/kg oral, fasted
Method: Male albino rats in fasted conditions were administered a single dose of [^14C]EC-18 (oral dose of 200 mg/kg, vehicle: olive oil). The distribution and levels of radioactivity in the body were observed by whole-body autoradiography performed at 0.25, 1, 8, and 24 hrs after [^14C]EC-18 administration.

[3] = Plasma radioactivity in rats after single oral or IV [14C]EC-18; type: in vivo, rat
Method: Male SD rats in the fed state were administered a single oral dose of 25, 50, or 100 mg/kg (vehicle: olive oil) or a single IV injection of 10 mg/kg of [^14C]EC-18 (EC-18 with radioactive isotope ^14C attached). Subsequently, the PK parameters were assessed. The concentration of radioactivity in rat plasma was measured by liquid scintillation counting (LSC) method after adding a scintillator (Clear-Sol I, Nacalai Tesque, Inc).

[4] = Plasma and lymphatic radioactivity after single oral [14C]EC-18 50 mg/kg in cannulated rats; type: in vivo, rat; details: 50 mg/kg oral; for Radioactive Concentration in Plasma: n=3
Method: After inserting a cannula into the intestinal tract of male SD rats, the rats in fed condition were given a single dose of [^14C]EC-18 (oral dose of 50 mg/kg; vehicle: olive oil), and samples were collected after 0.5, 1, 2, 4, 6, and 8 hrs of administration. In parallel, lymphatic fluid samples were collected from conscious rats up to 8 hrs after administration. The radioactive concentrations in rat plasma and lymphatic fluid were measured by LSC after adding a scintillator, and the quantified data are shown in Table 19.

[5] = Pathway of excretion in rats after single oral [14C]EC-18; type: in vivo, rat; details: 50 mg/kg oral
Method: To assess the routes of EC-18 excretion, male rats were administered a single dose of [^14C]EC-18 (oral dose of 50 mg/kg), after which, radioactive concentrations were measured in urine, feces, and exhaled air in the chamber of the animals for 168 hrs, and in the body after the autopsy.

[6] = Oral 25 mg/kg, plasma, fed, n=3
[7] = Oral 50 mg/kg, plasma, fed, n=3
[8] = Oral 100 mg/kg, plasma, fed, n=3

CCCCC/C=C\C/C=C\CCCCCCCC(=O)OC(CO)COC(=O)CCCCCCCCCCCCCCC (stereo not drawn) [PLH, palmitic linoleic hydroxyl glycerol, reference compound]
No. of mice that survived/total (Balb/c mice, 6.11 Gy TBI): 8/20 | Survival (Balb/c mice, 6.11 Gy TBI): 40% | Survival time of decedents, Mean ± SEM (Balb/c mice, 6.11 Gy TBI): 18.8 ± 1.6 days | Survival time of decedents, Median (Balb/c mice, 6.11 Gy TBI): 18 days | body weight loss induced by irradiation (Balb/c mice, 6.11 Gy TBI): aggravated body weight loss | survival compared to control group (Balb/c mice, 6.11 Gy TBI; 250 mg/kg): no statistically significant difference

CCCCC/C=C\C/C=C\CCCCCCCC(=O)OC(COC(C)=O)COC(=O)CCCCCCCCCCCCCCC (stereo not drawn) [[^14C]EC-18]
AUC0-inf ([1]; Lymphatic Fluid): 53900 ± 39100 μg eq · hr/mL | AUC0-last ([1]; Lymphatic Fluid): 20400 ± 600 μg eq · hr/mL | Cmax ([1]; Lymphatic Fluid): 1210 ± 200 µg/mL | t1/2 ([1]; Lymphatic Fluid): 29.7 ± 28.1 h | Tmax ([1]; Lymphatic Fluid): 7.0 ± 2.0 h | AUC0-inf ([1]; Whole Blood, fasted): 819 ± 130 μg eq · hr/mL | AUC0-last ([1]; Whole Blood, fasted): 496 ± 69 μg eq · hr/mL | Cmax ([1]; Whole Blood, fasted): 38.8 ± 9.5 µg/mL | t1/2 ([1]; Whole Blood, fasted): 16.8 ± 1.9 h | Tmax ([1]; Whole Blood, fasted): 3.8 ± 2.9 h | site of highest radioactivity ([2]; 0.25 hr): stomach and small intestine | site of highest radioactivity ([2]; 1 hr): stomach and small intestine | site of highest radioactivity ([2]; 8 hrs): inner walls of the stomach | radioactivity distribution ([2]; 24 hrs): low radioactivity was observed in the liver | AUClast ([3]; IV 10 mg/kg, plasma, fed, n=3): 215 ± 11 μg eq · hr/mL | Cmax (= C0) ([3]; IV 10 mg/kg, plasma, fed, n=3): 81.5 ± 3.4 μg eq/mL | t1/2 ([3]; IV 10 mg/kg, plasma, fed, n=3): 32.5 ± 1.2 h | F ([3]; Oral 25 mg/kg): 46% | AUClast [3, 6]: 224 ± 30 μg eq · hr/mL | Cmax [3, 6]: 7.2 ± 1.4 μg eq/mL | Tmax [3, 6]: 7.3 ± 5.0 h | t1/2 [3, 6]: 32.0 ± 3.1 h | F ([3]; Oral 50 mg/kg): 49% | AUClast [3, 7]: 473 ± 53 μg eq · hr/mL | Cmax [3, 7]: 16.6 ± 1.4 μg eq/mL | Tmax [3, 7]: 4.7 ± 2.3 h | t1/2 [3, 7]: 31.4 ± 1.8 h | F ([3]; Oral 100 mg/kg): 42% | AUClast [3, 8]: 830 ± 29 μg eq · hr/mL | Cmax [3, 8]: 29.6 ± 2.7 μg eq/mL | Tmax [3, 8]: 6.0 ± 3.5 h | t1/2 [3, 8]: 31.7 ± 3.5 h | Radioactive Concentration in Plasma ([4]; 0.5 hr): 0.096 ± 0.096 μg eq/mL | Radioactive Concentration in Plasma ([4]; 1 hr): 0.689 ± 0.796 μg eq/mL | Radioactive Concentration in Plasma ([4]; 2 hr): 2.09 ± 1.65 μg eq/mL | Radioactive Concentration in Plasma ([4]; 4 hr): 6.51 ± 2.21 μg eq/mL | Radioactive Concentration in Plasma ([4]; 6 hr): 10.2 ± 2.7 μg eq/mL | radioactive concentration in plasma as share of the administered dose ([4]; 8 h): approximately 28% | Radioactive Concentration in Plasma ([4]; 8 hr, 50 mg/kg): 17.5 μg eq/mL and 17.5 ± 4.9 μg eq/mL | Cumulative Radioactive Concentration Relative to the Administered Dose, Cage-Cleaning Water ([5]; 0-24 hr): 0.0 ± 0.0% | Cumulative Radioactive Concentration Relative to the Administered Dose, Exhaled Air ([5]; 0-24 hr, 50 mg/kg): 71.0 ± 3.2% | Cumulative Radioactive Concentration Relative to the Administered Dose, Feces ([5]; 0-24 hr, 50 mg/kg): 3.0 ± 0.5% | Cumulative Radioactive Concentration Relative to the Administered Dose, Total ([5]; 0-24 hr, 50 mg/kg): 75.9 ± 3.2% | Cumulative Radioactive Concentration Relative to the Administered Dose, Urine ([5]; 0-24 hr, 50 mg/kg): 1.9 ± 0.3% | Cumulative Radioactive Concentration Relative to the Administered Dose, Cage-Cleaning Water ([5]; 0-48 hr): 0.1 ± 0.1% | Cumulative Radioactive Concentration Relative to the Administered Dose, Exhaled Air ([5]; 0-48 hr): 75.0 ± 3.8% | Cumulative Radioactive Concentration Relative to the Administered Dose, Feces ([5]; 0-48 hr): 3.6 ± 0.7% | Cumulative Radioactive Concentration Relative to the Administered Dose, Total ([5]; 0-48 hr): 80.7 ± 3.8% | Cumulative Radioactive Concentration Relative to the Administered Dose, Urine ([5]; 0-48 hr): 2.1 ± 0.3% | Cumulative Radioactive Concentration Relative to the Administered Dose, Cage-Cleaning Water ([5]; 0-72 hr): 0.1 ± 0.0% | Cumulative Radioactive Concentration Relative to the Administered Dose, Exhaled Air ([5]; 0-72 hr, 50 mg/kg): 76.7 ± 3.9% | Cumulative Radioactive Concentration Relative to the Administered Dose, Feces ([5]; 0-72 hr, 50 mg/kg): 3.8 ± 0.7% | Cumulative Radioactive Concentration Relative to the Administered Dose, Total ([5]; 0-72 hr, 50 mg/kg): 82.8 ± 3.9% | Cumulative Radioactive Concentration Relative to the Administered Dose, Urine ([5]; 0-72 hr, 50 mg/kg): 2.2 ± 0.3% | Cumulative Radioactive Concentration Relative to the Administered Dose, Cage-Cleaning Water ([5]; 0-96 hr): 0.1 ± 0.0% | Cumulative Radioactive Concentration Relative to the Administered Dose, Exhaled Air ([5]; 0-96 hr): 77.7 ± 3.9% | Cumulative Radioactive Concentration Relative to the Administered Dose, Feces ([5]; 0-96 hr): 3.9 ± 0.7% | Cumulative Radioactive Concentration Relative to the Administered Dose, Total ([5]; 0-96 hr): 84.0 ± 3.8% | Cumulative Radioactive Concentration Relative to the Administered Dose, Urine ([5]; 0-96 hr): 2.3 ± 0.4% | Cumulative Radioactive Concentration Relative to the Administered Dose, Cage-Cleaning Water ([5]; 0-120 hr): 0.1 ± 0.0% | Cumulative Radioactive Concentration Relative to the Administered Dose, Exhaled Air ([5]; 0-120 hr): 78.4 ± 3.9% | Cumulative Radioactive Concentration Relative to the Administered Dose, Feces ([5]; 0-120 hr): 4.0 ± 0.7% | Cumulative Radioactive Concentration Relative to the Administered Dose, Total ([5]; 0-120 hr): 84.8 ± 3.8% | Cumulative Radioactive Concentration Relative to the Administered Dose, Urine ([5]; 0-120 hr): 2.3 ± 0.4% | Cumulative Radioactive Concentration Relative to the Administered Dose, Cage-Cleaning Water ([5]; 0-144 hr): 0.1 ± 0.0% | Cumulative Radioactive Concentration Relative to the Administered Dose, Exhaled Air ([5]; 0-144 hr): 78.9 ± 3.9% | Cumulative Radioactive Concentration Relative to the Administered Dose, Feces ([5]; 0-144 hr): 4.1 ± 0.7% | Cumulative Radioactive Concentration Relative to the Administered Dose, Total ([5]; 0-144 hr): 85.4 ± 3.8% | Cumulative Radioactive Concentration Relative to the Administered Dose, Urine ([5]; 0-144 hr): 2.3 ± 0.4% | Cumulative Radioactive Concentration Relative to the Administered Dose, Cage-Cleaning Water ([5]; 0-168 hr): 0.1 ± 0.0% | Cumulative Radioactive Concentration Relative to the Administered Dose, Cadaver ([5]; 0-168 hr, 50 mg/kg): 9.8 ± 1.0% | Cumulative Radioactive Concentration Relative to the Administered Dose, Exhaled Air ([5]; 0-168 hr, 50 mg/kg): 79.3 ± 3.9% | Cumulative Radioactive Concentration Relative to the Administered Dose, Feces ([5]; 0-168 hr, 50 mg/kg): 4.2 ± 0.7% | Cumulative Radioactive Concentration Relative to the Administered Dose, Total ([5]; 0-168 hr, 50 mg/kg): 95.7 ± 3.3% | Cumulative Radioactive Concentration Relative to the Administered Dose, Urine ([5]; 0-168 hr, 50 mg/kg): 2.3 ± 0.4%
